# Reference: patent US20120071537A1, “New Oral Formulation” (priority 1998, published 2012)
# What was measured:
# Solubility in water = type: physicochemical; details: at 25° C. in water
# Method: By “poorly soluble” is meant an active agent having a solubility in aqueous media more than 0.001% and less than 10%, e.g., less than 1%, e.g., less than 0:1%, e.g., less than 0.05%, e.g., less than 0.02%, at room temperature, e.g., 25° C.
# (§1) which is referred hereinafter as Compound A, or a pharmaceutically acceptable salt form thereof, e.g., the hydrogen maleate (hereinafter “hml”) salt.
# [1] = Acid sensitivity (degradation under slightly acidic conditions); type: physicochemical
# Excerpt: Examples of compounds are known in the art and may be ascertained by routine experimentation.
# as §1
# [2] = Dissolution characteristics of oral tablet composition in water or USP buffers pH 6.8 and 7.5; type: physicochemical; details: composition comprising Tegaserod
# Excerpt: In a further aspect the present invention provides a pharmaceutical oral, e.g., tablet, composition comprising one of the active agents cited above, e.g., a 5-HT4 agonist, partial agonist or antagonist, e.g., Tegaserod, said composition having dissolution characteristics in water or in USP buffers pH 6.8 and 7.5 of
# For example a composition according to the invention, e.g., comprising Tegaserod as the active agent, may have dissolution characteristics in water or in USP buffers pH 6.8 and 7.5 of: […]
# rectal afferents = experiment: Single unit activity of rectal afferent fibres during barostat-controlled rectal distension in decerebrate cats; type: in vivo; details: i.v., incremental doses from 0.15 to 1.2 mg/kg
# Method: Decerebrate, anaesthesia-free cats under continuous monitoring of blood pressure are paralysed by alcuronium chloride dissolved in rheomacrodex i.v. (200 μg/kg initially and supplementary doses of 100 μg/kg, if necessary), and artificially ventilated. Single unit activity of afferent fibres are recorded in a monopolar fashion from peripheral endings of centrally cut filaments of sacral dorsal roots. Tension receptors are identified by probing of their receptive fields in the wall of the mobilised rectum. Thereafter, the response of the units to barostat-controlled rectal ramp-distension is determined. The quantitative response characteristics of the units is evaluated with respect to distension pressure and resulting rectal diameter. Alternatively, the response of the units to pressure-induced peristalsis is measured. After obtaining 2 distension profiles (5 min each) and/or 10 min of peristalsis under control conditions, a 5-HT4 receptor agonist, partial agonist or antagonist, e.g., Compound A, or vehicle is applied i.v. and the protocol is repeated. Subsequently, the activity of additional units is recorded in the presence of a 5-HT4 receptor agonist, partial agonist or antagonist, e.g., Compound A, or vehicle according to the distension/peristalsis protocol. […]
# [3] = tested on: sensory perception of rectal distension; experiment: Colonic perfusion manometry with balloon distension, sensation threshold in fasted healthy volunteers; type: in vivo; details: 2-12 mg p.o., assessed 30 to 90 min after dosing
# Method: Intraluminal pressures and reflexes in the last 60 cm of the colon of 10 fasted healthy volunteers are measured by means of perfusion manometry. Three latex balloons positioned at 50, 30 and 10 cm, allow volume stimulation. Basal values of colonic intraluminal pressures and reflexes are established. Subsequently, reflex inhibitory relaxations of the internal anal sphincter is triggered by inflating the balloons by 10 ml increments up to a maximum volume of 150 ml. During the inflation phase, two parameters are evaluated: a) the reflux threshold (volume able to induce a substantial pressure decrease of the internal anal sphincter); and b) the sensation threshold (volume able to induce a conscious defecation reflex). After the basal recordings, each subject is given a 5-HT4 receptor agonist, partial agonist or antagonist, e.g., Compound A, p.o. and 30 to 90 min later the colonic intraluminal pressure and reflexes are assessed again by the same method.
# equine intestine = experiment: Gastro-intestinal motility after colic surgery (post-operative ileus) in horses; type: in vivo; details: i.v. or i.m., 0.01 to 10 mg/kg every 8 to 24 h
# Method: 20 horses having colic syndrome are submitted to abdominal surgery. During surgery supportive therapy is applied to them. At the end of surgery, a specific 5-HT4 receptor agonist or partial agonist, e.g., Compound A, is administered i.v. or i.m., e.g. at a dose of from 0.01 to 10 mg/kg. This dose is repeated every 8 to 24 h until spontaneous defecation is observed. Gastro-intestinal motility is evaluated based e.g. on the presence or absence of gastric reflux as determined by nasogastric intubation, occurrence of borborygmi and timing of defecation after the first injection of the test compound.
smiles,measurement,setting,value
"CCCCCNC(=N)NN=Cc1c[nH]c2ccc(OC)cc12 [Compound A, 3-(5-methoxy-1H-indol-3-yl-methylene)-N-pentylcarbazimidamide]",solubility,Solubility in water,about 0.02%
same,acid sensitivity,[1],acid sensitive
same,amount (percentage) dissolved,[2]; time 5 minutes,48.9 percentage
same,amount (percentage) dissolved,[2]; time 15 minutes,95.5 percentage
same,amount (percentage) dissolved,[2]; time 30 minutes,99.7 percentage
same,amount (percentage) dissolved,[2]; time 60 minutes,100 percentage
same,distension pressure at which the most prominent inhibition of firing occurs,rectal afferents,50 mmHg
same,dose giving half-maximal reduction of the firing rate of rectal afferents,rectal afferents,about 0.7 mg/kg
same,sensation threshold (volume able to induce a conscious defecation reflex),[3],significantly reduced
same,restoration of normal motility function of the equine intestine,equine intestine,effective in restoring normal motility function
